Source: patent publication US9783490B2, “Antimicrobial compounds, their synthesis and applications thereof” (The Secretary of State for Health, priority 2012, dated 2017)
Where two headings read alike, the source gives them in different places.

Assays:
E. coli (MTCC 443) = assay: Minimum Inhibitory Concentration, micro-dilution broth; assay type: cell-based, Escherichia coli; conditions: for Minimum Inhibitory Concentration E. coli: Drug sensitive bacteria
Experimental: (§1) Microorganisms and Culture Conditions: Bacterial strains, S. aureus (MTCC 737) and E. coli (MTCC 443) are purchased from MTCC (Chandigarh, India). MRSA (ATCC 33591), Pseudomonas aeruginosa (ATCC 4676), […]-lactamase producing and drug-resistant Klebsiella pneumonia (ATCC700603), Enterococcus faecium (ATCC 19634) and vancomycin resistant Enterococcus faecium (ATCC 51559) are obtained from ATCC (Rockville, Md., USA).
(§2) E. coli is cultured in Luria Bertani broth (10 g of tryptone, 5 g of yeast extract, and 10 g of NaCl in 1000 mL of sterile distilled water (pH −7) while S. aureus, Pseudomonas aeruginosa (ATCC 4676) and MRSA are grown in Yeast-dextrose broth (1 g of beef extract, 2 g of yeast extract, 5 g of peptone and 5 g of NaCl in 1000 mL of sterile distilled water). For all Enterococcus faecium, Brain Heart Infusion broth (BHI) is used. For solid media 5% agar was used along with above mentioned composition. K. pneumonia was grown in nutrient media (3 g of beef extract and 5 g of peptone in 1000 mL of sterile distilled water). The bacterial samples were freeze dried and stored at −80° C. 5 μl of these stocks were added to 3 mL of the nutrient broth and the culture was grown for 6 h at 37° C. prior to the experiments.
(§3) Antibacterial activity is reported as Minimum Inhibitory Concentration (MIC), i.e. the lowest concentration of the antimicrobial agent that will inhibit the growth of a microorganism after overnight incubation. Water-soluble ACK, NCK and BCK series of compounds are assayed in a modified micro-dilution broth format. Stock solutions are made by serially diluting the compounds using autoclaved Millipore water. Bacteria, to be tested are grown for about 6 hrs in the suitable media containing ˜10^9 cfu/mL (determined through dilution plate technique by spread plate method), which is then diluted to 10^5 cfu/mL using nutrient media. 50 μL of serially diluted compound is added to a 96 well plate containing 150 μL bacterial solutions. Two controls are made; one containing 150 μL of media and 50 μL of compound and the other containing 200 μL of bacterial solution. […] MIC value is determined by taking the average of triplicate O.D. values for each concentration and plotting it against concentration using Origin Pro 8.0 software. The data is then subjected to sigmoidal fitting. From the curve, MIC value is determined, as the point in the curve where the O.D. is similar to that of control having no bacteria. The MIC values and errors of independent experiments are reported as average and standard deviation of triplicates.

[1] = test system: drug-resistant Klebsiella pneumonia (ATCC700603); assay: as above; assay type: cell-based; conditions: for Minimum Inhibitory Concentration K. pneumonia: Drug resistant bacteria
Experimental: as §1, §2, §3

[2] = test system: Pseudomonas aeruginosa (ATCC 4676); assay: as above; assay type: cell-based; conditions: for Minimum Inhibitory Concentration P. aeruginosa: Drug sensitive bacteria
Experimental: as §1, §2, §3

[3] = test system: vancomycin resistant Enterococcus faecium (ATCC 51559); assay: as above; assay type: cell-based; conditions: for Minimum Inhibitory Concentration VRE: Drug resistant bacteria
Experimental: as §1, §2, §3

[4] = test system: Enterococcus faecium (ATCC 19634); assay: as above; assay type: cell-based; conditions: for Minimum Inhibitory Concentration E. faecium: Drug sensitive bacteria
Experimental: as §1, §2, §3

S. aureus (MTCC 737) = assay: as above; assay type: cell-based, Staphylococcus aureus; conditions: for Minimum Inhibitory Concentration S. aureus: Drug sensitive bacteria
Experimental: as §1, §2, §3

MRSA (ATCC 33591) = assay: as above; assay type: cell-based, Methicillin resistant S. aureus; conditions: for Minimum Inhibitory Concentration MRSA: Drug resistant bacteria
Experimental: as §1, §2, §3

human RBCs = assay: Haemolytic activity (HC50); assay type: cell-based
Experimental: Erythrocytes are isolated from freshly drawn, heparinized human blood and re-suspended to 5 vol % in PBS (pH 7.4). In a 96-well microtiter plate, 150 μl of erythrocyte suspension is added to 50 μl of serially diluted compound. Two controls are made, one without compound and other with 50 μl of 1 vol % solution of Triton X-100. The plate is incubated for about 1 hr at a temperature of about 37° C. The plate is then centrifuged at 3,500 rpm for about 5 min, 100 μl of the supernatant from each well is transferred to a fresh microtiter plate, and absorbance at 540 nm is measured. Percentage of hemolysis is determined as (A−A0)/(Atotal−A0)×100, where A is the absorbance of the test well, A0 the absorbance of the negative controls (without compound), and A total the absorbance of 100% hemolysis wells (with Triton X-100), when absorbance is read at 540 nm.
Toxicity studies of the compounds are carried out on freshly drawn human RBCs. Toxicity of the antimicrobial compounds of the present disclosure is defined by their HC50 values illustrated in Table 3, i.e. the concentration of compound at which 50% of the blood cells are lysed. Haemolytic studies conducted herein illustrates that the antimicrobial compounds provided by the instant disclosure are selective towards drug sensitive bacteria and drug resistant bacteria over human RBCs, thus establishing the non-toxicity of the present compounds.

[5] = concentration at which 50% of the blood cells are lysed, human RBCs

| Structure (SMILES) | Minimum Inhibitory Concentration E. coli (E. coli (MTCC 443)) [µg/mL] | Minimum Inhibitory Concentration K. pneumonia [1] [µg/mL] | MIC value against P. aeruginosa [2] | Minimum Inhibitory Concentration P. aeruginosa [2] [µg/mL] | Minimum Inhibitory Concentration VRE [3] [µg/mL] | Minimum Inhibitory Concentration E. faecium [4] [µg/mL] | Minimum Inhibitory Concentration S. aureus (S. aureus (MTCC 737)) [µg/mL] | Minimum Inhibitory Concentration MRSA (MRSA (ATCC 33591)) [µg/mL] | HC50 (human RBCs; [5]) [µg/mL] | MIC value against E. coli (E. coli (MTCC 443)) | MIC value against K. pneumonia [1] | MIC value against vancomycin-resistant E. faecium [3] | MIC value against E. faecium [4] | MIC value against S. aureus (S. aureus (MTCC 737)) | MIC value against methicillin-resistant S. aureus (MRSA (ATCC 33591)) | HC50 (human RBCs) [µg/mL] |
| --- | --- | --- | --- | --- | --- | --- | --- | --- | --- | --- | --- | --- | --- | --- | --- | --- |
| CCN(Cc1c2ccccc2c(Cl)c2ccccc12)C(=O)C(N)CCCCN.O=C(O)C(F)(F)F (centres unmarked) [ACK-2, Lys-N-ethyl-10-Aminomethyl-9-chloroanthracene trifluoroacetate] | 25 | 31 | about 4 μg/ml | 4 | 7.2 | 13.6 | 11 | 21 | 118 | – | – | – | – | – | – | – |
| CCCCN(Cc1c2ccccc2c(Cl)c2ccccc12)C(=O)C(N)CCCCN.O=C(O)C(F)(F)F (centres unmarked) [ACK-4, Lys-N-butyl-10-Aminomethyl-9-chloroanthracene trifluoroacetate] | 4.8 | 17 | ~1.9 µg/mL | 1.9 | 5.3 | 4.5 | 5.3 | 6.3 | 91 | about 4.8 μg/ml | about 17 μg/ml | about 5.3 μg/ml | about 4.5 μg/ml | about 5.3 μg/ml | about 6.3 μg/ml | – |
| CCCCCCN(Cc1c2ccccc2c(Cl)c2ccccc12)C(=O)C(N)CCCCN.O=C(O)C(F)(F)F (centres unmarked) [ACK-6, Lys-N-hexyl-10-Aminomethyl-9-chloroanthracene trifluoroacetate] | 3.5 | 16 | ~1.6 µg/mL | 1.6 | 5.2 | 3.3 | 2.4 | 2.8 | 82 | ~3.5 µg/mL | ~16 µg/mL | ~5.2 µg/mL | ~3.3 µg/mL | ~2.4 µg/mL | ~2.8 µg/mL | – |
| CCCCCCCCN(Cc1c2ccccc2c(Cl)c2ccccc12)C(=O)[C@@H](N)CCCCN.O=C(O)C(F)(F)F [ACK-8, Lys-N-octyl-10-Aminomethyl-9-chloroanthracene trifluoroacetate] | 2.9 | 4.3 | ~3.8 µg/mL | 3.8 | 3 | 2.5 | 2.2 | 2.3 | 64 | ~2.9 µg/mL | ~4.3 µg/mL | ~3 µg/mL | ~2.5 µg/mL | ~2.2 µg/mL | ~2.3 µg/mL | – |
| CCCCCCCCCCN(Cc1c2ccccc2c(Cl)c2ccccc12)C(=O)[C@@H](N)CCCCN.O=C(O)C(F)(F)F [ACK-10, Lys-N-decyl-10-Aminomethyl-9-chloroanthracene trifluoroacetate] | 26 | 7.6 | – | 11 | 5.6 | 4.9 | 7.1 | 4.6 | 71 | – | ~7.6 µg/mL | ~5.6 µg/mL | ~4.9 µg/mL | ~7.1 µg/mL | ~4.6 µg/mL | – |
| CCCCN(Cc1ccccc1)C(=O)[C@@H](N)CCCCN.O=C(O)C(F)(F)F [BCK-4, Lys-N-butyl-1-Aminomethylbenzene trifluoroacetate] | >100 | >100 | – | >100 | – | >100 | >100 | >100 | – | – | – | – | – | – | – | >1000 |
| CCCCCCN(Cc1ccccc1)C(=O)[C@@H](N)CCCCN.O=C(O)C(F)(F)F [BCK-6, Lys-N-hexyl-1-Aminomethylbenzene trifluoroacetate] | >100 | >100 | – | >100 | – | >100 | >100 | >100 | – | – | – | – | – | – | – | >1000 |
| CCCCCCCCN(Cc1ccccc1)C(=O)C(N)CCCCN.O=C(O)C(F)(F)F (centres unmarked) [BCK-8, Lys-N-octyl-1-Aminomethylbenzene trifluoroacetates] | 51 | >100 | – | 60 | >100 | 60 | 46 | >100 | 325 | – | – | – | – | – | – | – |
| CCCCN(Cc1ccc(-c2ccccc2)cc1)C(=O)[C@@H](N)CCCCN [Compound 6a, Lys-N-Butyl-1-Aminomethylbiphenyl] | – | – | – | – | – | – | 60 | – | – | – | – | – | – | – | – | – |
| CCCCCCN(Cc1ccc(-c2ccccc2)cc1)C(=O)[C@@H](N)CCCCN [Compound 6b, Lys-N-hexyl-1-Aminomethylbiphenyl] | – | – | – | – | – | – | 7.5 | – | – | – | – | – | – | – | – | – |
| CCCCCCCCN(Cc1ccc(-c2ccccc2)cc1)C(=O)C(N)CCCCN (centres unmarked) [Compound 6c, Lys-N-octyl-1-Aminomethylbiphenyl] | – | – | – | – | – | – | 1.3 | – | – | – | – | – | – | – | – | – |
| CCCCCCCCN(Cc1c2ccccc2cc2ccccc12)C(=O)[C@@H](N)CCCCN.O=C(O)C(F)(F)F [Compound 8c, Lys-N-octyl-9-Aminomethylanthracene trifluoroacetate] | – | – | – | – | – | – | 2.2 | 3.6 | – | – | – | – | – | – | – | 42 |
